From patent US12116388B2, “Amylin receptor agonists” (Novo Nordisk A/S, priority 2022, dated 2024)
Starred links: 1 amine or outer side, 2 acyl side, 3 side chain; linkers in the order of their positions; H or OH if unused. Residues, ends and D or L forms follow the SMILES beside them. *: point of attachment. C20 diacid = O=C(O)CCCCCCCCCCCCCCCCCCC(=O)*; γGlu = O=C(O)[C@H](CCC(=O)[*:2])N[*:1]

What was measured:
[1] = target: T1, human calcitonin receptor (hCTR) (Homo sapiens, UniProt P30988); experiment: Human calcitonin receptor (hCTR) in vitro potency assay, CRE-luciferase reporter in BHK cells; type: cell-based; conditions: BHK hCTR/CRE-Luc cells, 3 hours incubation, assay buffer with 1% ovalbumin; read-out: hCalcR potency, EC50
T1 construct: host or cells: BHK (Baby Hamster Kidney), Hollex-1 cell line
T1 sequence (P30988 25-474): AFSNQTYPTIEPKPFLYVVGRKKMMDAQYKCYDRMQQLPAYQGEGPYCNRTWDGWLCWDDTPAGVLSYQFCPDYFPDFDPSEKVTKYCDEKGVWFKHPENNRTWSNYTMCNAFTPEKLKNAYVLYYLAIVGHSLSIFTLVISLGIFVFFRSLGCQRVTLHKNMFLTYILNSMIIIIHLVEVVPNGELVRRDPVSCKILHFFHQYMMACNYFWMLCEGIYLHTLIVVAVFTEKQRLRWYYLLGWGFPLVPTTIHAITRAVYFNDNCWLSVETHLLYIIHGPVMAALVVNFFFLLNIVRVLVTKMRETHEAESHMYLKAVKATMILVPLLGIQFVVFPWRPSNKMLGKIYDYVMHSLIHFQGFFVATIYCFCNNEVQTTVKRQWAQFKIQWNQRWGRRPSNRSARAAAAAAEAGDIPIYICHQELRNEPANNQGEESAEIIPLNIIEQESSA
Excerpt: (§1) Activation of hCTR leads to increased cellular concentrations of CAMP. Consequently, transcription is activated by promotors containing multiple copies of the CAMP response element (CRE). It is thus possible to measure hCTR activity using a CRE-luciferase reporter gene introduced into Baby Hamster Kidney (BHK) cells co-expressing the hCTR.
(§2) A BHK cell line was stably transfected with the human calcitonin receptor (a) and a CRE-responsive luciferase (CRE-Luc) reporter gene according to methods known to the person skilled in the art (Hollex-1 cell line, obtained from Zymogenetics described in U.S. Pat. No. 5,622,839).
(§3) Cells stocks were prepared by culturing of the stably transfected BHK hCTR/CRE-Luc cell line in growth medium consisting of DMEM (Gibco, 31966-021) supplemented with 10% FBS (Gibco, 16140-071), 1% Pen/Strep (Gibco, 15140-122), 0.5 mg/mL Geneticin (Gibco, 10131-027) and 250 nM Methotrexate (Sigma, A6770). Cells at approximately 80-90% confluence were washed once with PBS (Gibco 14190-094) and loosened from the cell flasks with Versene (Gibco, 15040-033) or TrypLE™ (Gibco, 12605-010). After centrifugation, the cell pellet was dissolved and diluted to approximately 2.5×10E6 cells/mL in Recovery™ Cell Culture Freezing Medium (Gibco, 12648-010). Cells were aliquoted and stored at −180° C. until use.
(§4) The assay buffer consisted of DMEM without phenol red (Gibco, 11880-028) supplemented with 1× GlutaMAX (Gibco, 35050-038), 10 mM HEPES (Gibco, 15630-056) and 1% (w/v) ovalbumin (Sigma, A5503).
(§5) To perform the assay, BHK hCTR/CRE-Luc cells were thawed, washed once in PBS and seeded in 40 μL growth medium in a white 384-well culture plate (PerkinElmer, 6007688) at a cell density of 4.000 cells/well on the day before the experiment. The plate was incubated over night at 37° C. in 5% CO2. On the day of the assay, cells were washed once in assay buffer. Serial dilutions (7-fold dilutions, 7 concentrations Pr. compound and one well containing only assay buffer) of comparator compounds and amylin analogues were performed in assay buffer often starting from approximately 10 nM in 96-well plates and 30 μL of each concentration added to the 384-well assay plate with cells. The assay plate was incubated for 3 hours at 37° C. in 5% CO2 after which 30 μL SteadyLite Plus (PerkinElmer, 6066759) was added to each well. The assay plate was sealed, incubated at room temperature with gentle shaking for 5 minutes followed by 30 minutes incubation without shaking while protected from light. Luminescence was detected on a luminescence plate reader e.g. a Synergy 2 (BioTek).

[2] = target: T2, human amylin receptor (hAMYR3) (Homo sapiens, UniProt O60896+P30988); experiment: Human amylin receptor (hAMYR3) in vitro potency assay, CRE-luciferase reporter in BHK cells; type: cell-based; conditions: BHK hAMYR3/CRE-Luc cells, 3 hours incubation, assay buffer with 1% ovalbumin
T2 construct: host or cells: BHK (Baby Hamster Kidney), Hollex-1 cell line further transfected with RAMP3
T2 sequence (O60896 24-148, one chain of several): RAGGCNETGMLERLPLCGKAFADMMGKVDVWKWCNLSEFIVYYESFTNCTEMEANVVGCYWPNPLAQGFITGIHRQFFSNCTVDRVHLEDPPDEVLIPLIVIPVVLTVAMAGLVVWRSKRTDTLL
Excerpt: as §1, with “hAMYR3” for “hCTR”, “cAMP.” for “CAMP.”, “hAMYR3.” for “hCTR.”
as §2, with “5,622,839). The cell line was further transfected with human receptor modifying protein 3 (RAMP3) using standard methods. This turns the human calcitonin receptor into a human amylin-3(a) receptor.” for “5,622,839).”
as §3, with “hAMYR3/CRE-Luc” for “hCTR/CRE-Luc”, “10131-027), 0.4 mg/mL Hygromycin (Invitrogen, 10687010)” for “10131-027)”
as §4
as §5, with “hAMYR3/CRE-Luc” for “hCTR/CRE-Luc”

EC50 [1] [pM] | EC50 [2] [pM] | Structure (SMILES)
1.3 |  | CC[C@H](C)[C@H](NC(=O)[C@@H]1CCCN1C(=O)CNC(=O)[C@H](Cc1ccccc1)NC(=O)[C@H](CC(N)=O)NC(=O)[C@H](CC(=O)O)NC(=O)[C@H](CO)NC(=O)[C@H](CO)NC(=O)[C@H](Cc1c[nH]cn1)NC(=O)[C@H](Cc1c[nH]cn1)NC(=O)[C@H](CC(C)C)NC(=O)[C@H](Cc1ccccc1)NC(=O)[C@H](CCC(=O)O)NC(=O)[C@H](C)NC(=O)[C@H](CC(C)C)NC(=O)[C@H](CCCNC(=N)N)NC(=O)[C@H](CCC(N)=O)NC(=O)[C@@H](NC(=O)[C@H](CCC(N)=O)NC(=O)[C@H](C)NC(=O)[C@@H](NC(=O)[C@H](CO)NC(=O)[C@H](CC(C)C)NC(=O)[C@H](Cc1c[nH]cn1)NC(=O)[C@H](CO)NC(=O)[C@H](C)NC(=O)CC[C@H](NC(=O)CCCCCCCCCCCCCCCCCCC(=O)O)C(=O)O)[C@@H](C)O)[C@@H](C)O)C(=O)N[C@@H](CC(C)C)C(=O)N1CCC[C@H]1C(=O)N1CCC[C@H]1C(=O)N[C@H](C(=O)N[C@@H](CC(=O)O)C(=O)N[C@H](C(=O)NCC(=O)N[C@@H](CO)C(=O)N[C@@H](CC(N)=O)C(=O)N[C@H](C(=O)N1CCC[C@H]1C(N)=O)[C@@H](C)O)C(C)C)[C@@H](C)O [Compound 3, N^1-[(4S)-4-carboxy-4-(19-carboxynonadecanoylamino)butanoyl]-[Ala1,Ser2,His3,Leu4,Ser5,Ala7,Gln8,Glu14,His17,Asp21,Pro25,Pro28,Pro29,Asp31,Pro37]-human amylin] ({C20 diacid-γGlu}-ASHLSTAQTQRLAEFLHHSSDNFGPILPPTDVGSNTP-NH2)
1.49 | 1.09 | CC[C@H](C)[C@H](NC(=O)[C@@H]1CCCN1C(=O)CNC(=O)[C@H](Cc1ccccc1)NC(=O)[C@H](Cc1c[nH]cn1)NC(=O)[C@H](Cc1c[nH]cn1)NC(=O)[C@H](CC(C)C)NC(=O)[C@H](Cc1ccccc1)NC(=O)[C@H](CCC(=O)O)NC(=O)[C@H](C)NC(=O)[C@H](CC(C)C)NC(=O)[C@H](CCCNC(=N)N)NC(=O)[C@H](C)NC(=O)[C@@H](NC(=O)[C@H](CCC(N)=O)NC(=O)[C@H](C)NC(=O)[C@@H](NC(=O)[C@H](CO)NC(=O)[C@H](CC(C)C)NC(=O)[C@H](Cc1c[nH]cn1)NC(=O)[C@H](CO)NC(=O)[C@H](C)NC(=O)CC[C@H](NC(=O)CCCCCCCCCCCCCCCCCCC(=O)O)C(=O)O)[C@@H](C)O)[C@@H](C)O)C(=O)N[C@@H](CC(C)C)C(=O)N1CCC[C@H]1C(=O)N1CCC[C@H]1C(=O)N[C@H](C(=O)N[C@@H](CC(=O)O)C(=O)N[C@H](C(=O)NCC(=O)N[C@@H](CO)C(=O)N[C@@H](CCC(=O)O)C(=O)N[C@H](C(=O)N1CCC[C@H]1C(N)=O)[C@@H](C)O)C(C)C)[C@@H](C)O [Compound 5, N^1-[(4S)-4-carboxy-4-(19-carboxynonadecanoylamino)butanoyl]-[Ala1,Ser2,His3,Leu4,Ser5,Ala7,Gln8,Ala10,Glu14,His17,Pro25,Pro28,Pro29,Asp31,Glu35,Pro37],des-(19-22)-human amylin] ({C20 diacid-γGlu}-ASHLSTAQTARLAEFLHHFGPILPPTDVGSETP-NH2)
1.25 |  | CC[C@H](C)[C@H](NC(=O)[C@H](C)NC(=O)CNC(=O)[C@H](Cc1ccccc1)NC(=O)[C@@H]1CCCN1C(=O)[C@H](CC(=O)O)NC(=O)[C@H](CO)NC(=O)[C@H](CO)NC(=O)[C@H](Cc1c[nH]cn1)NC(=O)[C@H](Cc1c[nH]cn1)NC(=O)[C@H](CC(C)C)NC(=O)[C@H](Cc1ccccc1)NC(=O)[C@H](CCC(=O)O)NC(=O)[C@H](C)NC(=O)[C@H](CC(C)C)NC(=O)[C@H](CCCNC(=N)N)NC(=O)[C@H](CCC(N)=O)NC(=O)[C@@H](NC(=O)[C@H](CCC(N)=O)NC(=O)[C@H](C)NC(=O)[C@@H](NC(=O)[C@H](CO)NC(=O)[C@H](CC(C)C)NC(=O)[C@H](Cc1c[nH]cn1)NC(=O)[C@H](CO)NC(=O)[C@H](C)NC(=O)CC[C@H](NC(=O)CCCCCCCCCCCCCCCCCCC(=O)O)C(=O)O)[C@@H](C)O)[C@@H](C)O)C(=O)N1CCC[C@H]1C(=O)N[C@@H](CO)C(=O)N[C@@H](CO)C(=O)N[C@H](C(=O)N[C@@H](CC(=O)O)C(=O)N[C@H](C(=O)NCC(=O)N1CCC[C@H]1C(=O)N[C@@H](CC(=O)O)C(=O)N[C@H](C(=O)N1CCC[C@H]1C(N)=O)[C@@H](C)O)C(C)C)[C@@H](C)O [Compound 6, N^1-[(4S)-4-carboxy-4-(19-carboxynonadecanoylamino)butanoyl]-[Ala1,Ser2,His3,Leu4,Ser5,Ala7,Gln8,Glu14,His17,Asp21,Pro22,Pro27,Asp31,Pro34,Asp35,Pro37]-human amylin] ({C20 diacid-γGlu}-ASHLSTAQTQRLAEFLHHSSDPFGAIPSSTDVGPDTP-NH2)
